Read-outs that look alike come from different tables or passages of the source. Peptide text beside a SMILES is read from it. * marks the point of attachment. Cbz = O=C(OCc1ccccc1)*
Experiments:
c-20S β5c = c-20S β5c (Homo sapiens, UniProt P20618+P28074); conditions: ref [20], cited from earlier work
i-20S β5i = i-20S β5i (Homo sapiens, UniProt P20618+P28062); conditions: ref [20], cited from earlier work
M. tuberculosis = conditions: under nitrosative stress; ref [20]; cited from earlier work
Mtb20SOG [1] = molecular target: T1, Mtb20SOG (Mycobacterium tuberculosis, UniProt P9WHT9); conditions: ref [20], cited from earlier work
Mtb20SOG [2] = molecular target: T1, Mtb20SOG; assay: biochemical

T1 sequence (P9WHT9 58-291): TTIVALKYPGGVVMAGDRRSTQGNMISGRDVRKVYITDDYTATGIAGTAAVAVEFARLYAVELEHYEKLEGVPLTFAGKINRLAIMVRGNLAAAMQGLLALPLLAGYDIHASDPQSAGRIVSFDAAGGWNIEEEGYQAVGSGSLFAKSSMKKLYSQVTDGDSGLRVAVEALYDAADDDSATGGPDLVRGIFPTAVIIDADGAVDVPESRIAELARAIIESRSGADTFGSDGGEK
T1 sequence (P9WHU1 9-248 partner): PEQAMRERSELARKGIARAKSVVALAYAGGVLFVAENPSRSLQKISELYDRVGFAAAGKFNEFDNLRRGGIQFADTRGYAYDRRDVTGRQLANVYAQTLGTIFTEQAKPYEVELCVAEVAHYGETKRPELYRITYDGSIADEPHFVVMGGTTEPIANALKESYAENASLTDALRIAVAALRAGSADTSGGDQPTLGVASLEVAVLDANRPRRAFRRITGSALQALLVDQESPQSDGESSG

SMILES: CCN(CC)C(=O)C[C@H](NC(=O)CCc1ccccc1)C(=O)N[C@@H](Cc1ccc(F)cc1)C(=O)NCc1cccc2ccccc12 [DPLG-2]
- SIapp IC50β5c/IC50Mtb20SOG (c-20S β5c; apparent selectivity index): 4667
- IC50 (c-20S β5c; read-out: IC50 c-20S β5c (LLVY), suc-LLVY-AMC): 70 µM
- affinity for Mtb 20S stronger than for human c-20S (c-20S β5c): 4667 fold
- SIapp IC50β5i/IC50Mtb20SOG (i-20S β5i; apparent selectivity index): 3647
- IC50 (i-20S β5i; read-out: IC50 i-20S β5i (ANW), Ac-ANW-AMC): 54.7 µM
- affinity for Mtb 20S stronger than for human i-20S (i-20S β5i): 3647 fold
- bactericidal activity against nonreplicating bacteria (M. tuberculosis): bactericidal activity
- more potent against Mtb20SOG than DPLG-4 (Mtb20SOG [1]; DPLG-4 has a 4-isopropyl phenyl P1 group): 51 fold
- more potent against Mtb20SOG than ML9 (Mtb20SOG [1]; ML9 has a 2,4-difluorobenzyl P1 group): 4 fold
- IC50 (Mtb20SOG [1]; read-out: IC50 Mtb20SOG (LLVY), suc-LLVY-AMC): 15 nM

SMILES: CC(C)C[C@@H](C=O)NC(=O)[C@H](CC(C)C)NC(=O)[C@H](CC(C)C)NC(=O)OCc1ccccc1 [MG-132] (Cbz-Leu-Leu-Leu-aldehyde)
- IC50 (Mtb20SOG [2]): 1710 ± 79 nM

— publication PMC5745808 (Biochemistry, 2016)
